Assay results from patent US20220387602A1, “BIFUNCTIONAL DEGRADERS AND THEIR METHODS OF USE” (NOVARTIS AG, priority 2019, published 2022).
Entries after “also recorded” stand apart in the source; their conditions may differ.

Legend:
BTK = biological target: T1, BTK (Homo sapiens, UniProt Q06187); test: BTK-GFP protein abundance flow cytometry assay in HEK293A; assay type: cell-based; details: for BTK degradation Amax: % protein remaining at the concentration at which maximum degradation is seen, HEK293A; for BTK degradation Amax / DC50: 24 h; for DC50: concentration at which 50% maximal degradation was observed, HEK293A BTK-GFP sensor cells
T1 construct: the BTK open reading frame (ORF) was first shuttled from a pcDNA-DEST40-BTK vector; expressed in transfected cells; host or cells: HEK293A (Invitrogen R70507), lentiviral transduction, blasticidin selection
T1 sequence (Q06187 whole entry): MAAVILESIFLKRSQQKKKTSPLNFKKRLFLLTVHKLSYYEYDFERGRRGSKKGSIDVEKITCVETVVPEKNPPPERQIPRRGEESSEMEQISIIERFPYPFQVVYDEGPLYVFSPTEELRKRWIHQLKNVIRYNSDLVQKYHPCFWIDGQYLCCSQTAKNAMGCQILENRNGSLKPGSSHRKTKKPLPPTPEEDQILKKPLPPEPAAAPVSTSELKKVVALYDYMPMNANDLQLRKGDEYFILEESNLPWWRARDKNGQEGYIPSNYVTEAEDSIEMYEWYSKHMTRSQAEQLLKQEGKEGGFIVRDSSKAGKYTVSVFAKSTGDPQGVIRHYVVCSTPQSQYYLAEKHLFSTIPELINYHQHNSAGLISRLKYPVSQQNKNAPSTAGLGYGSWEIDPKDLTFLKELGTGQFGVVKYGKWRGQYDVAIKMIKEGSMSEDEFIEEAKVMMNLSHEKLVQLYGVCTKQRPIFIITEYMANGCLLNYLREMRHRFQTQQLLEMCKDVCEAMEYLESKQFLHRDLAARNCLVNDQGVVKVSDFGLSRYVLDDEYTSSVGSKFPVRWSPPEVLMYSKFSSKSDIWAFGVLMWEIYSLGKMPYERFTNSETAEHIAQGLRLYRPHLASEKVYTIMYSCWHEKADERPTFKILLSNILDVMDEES
Method: Degradation of BTK, CSK, ABL2, EPHA4 and YES1 was measured in HEK293A cells (Invitrogen R70507) expressing either BTK-GFP and RFP, CSK-GFP and mCherry, GFP-ABL2 and mCherry, EPHA4-GFP and mCherry, or YES1-GFP and mCherry from a stably integrated bicistronic BTK-GFP-iresRFP, CSK-GFP-CHYSEL-mCherry, GFP-ABL2-CHYSEL-mCherry, EPHA4-GFP-CHYSEL-mCherry, or YES1-GFP-CHYSEL-mCherry construct, respectively. Reduction of the GFP signal measured by flow cytometry served as readout for BTK, CSK, ABL2, EPHA4 and YES1 degradation after degrader treatment.
The mix was incubated for another 20 min at RT and then added on 1 mL of a freshly prepared suspension of HEK293FT cells in a well of a 6-well plate (concentration 1.2×10^6 cells/mL). 1 day after transfection, the medium was replaced with 1.5 mL of complete growth medium (DMEM high Glucose+10% FCS+1% L-Glutamine+1% NEAA+1% NaPyr.). 48 h post transfection supernatant containing viral transducing particles was collected and frozen at −80° C.
Infection was performed with 90 μL of collected supernatant containing viral transducing particles in 1 mL medium including 8 µg/mL polybrene. 24 h post infection, stably transfected cells were selected with blasticidin at a concentration of 8 μg/mL referred to as stable HEK293A sensor cells.
Stable HEK293A sensor cells were maintained in complete growth medium (DMEM high Glucose+10% FCS+1% L-Glutamine+1% NEAA+1% NaPyr.) with passaging performed twice per week. On Day 0, stable HEK293A sensor cells were seeded at 10,000 cells/well in a 96-well microtiter plate in 260 μL complete medium. On Day 1, cells were treated in duplicate with 10-point 1:3 dilution series of compound using the HP D300 Digital Dispenser (Tecan). DMSO concentrations were normalized across the plate to 0.1%. On Day 2, after 24 h of incubation at 37° C., treatment media was discarded, cells rinsed with 100 μL/well PBS and then detached using 40 μL trypsin/well for 5 min. Trypsin was neutralized with 100 μL/well PBS+20% FCS). Flow cytometry was performed on the samples using the BD FACS CANTO II (Becton Dickinson). Cell identification was then performed using forward (FSC) vs. side scatter (SSC) plots. Single cell discrimination is performed using SSC-Width (SSC-W) vs. SSC-Height (SSC-H) plots. Median GFP values for 5,000 single cells are used to determine BTK levels. Median GFP values from HEK293 Å-iresRFP are used as a background signal and thus defining 0% BTK signal. Median GFP values from DMSO treated HEK293 Å-BTK-GFP-iresRFP are used to define 100% BTK signal for subsequent DC50 curves (concentration at 50% BTK degradation). GFP and RFP are read in the channels called FITC and PE, respectively.
Concentration response curves plotting relative reduction of the GFP signal (measured by flow cytometry) versus 10 compound concentrations (starting concentration 10 μM, 3 fold dilution steps) of the compounds allowed generation of DC50 values. Protein abundance measured for the second generation vectors having a chysel was done in close analogy to the above described method for measuring BTK abundance.
Table 5 columns are defined as follows: DC50 refers to the concentration at which 50% maximal degradation was observed; deg Amax is the extent of degradation and the value refers to the % protein remaining at the concentration at which maximum degradation is seen.

CRBN = CRBN (Homo sapiens, UniProt Q96SW2); test: CRBN displacement assay Format 1 (fluorescence polarization, BodipyFL-lenalidomide probe Compound HH); assay type: binding
Chain of CRBN (Q96SW2 whole entry): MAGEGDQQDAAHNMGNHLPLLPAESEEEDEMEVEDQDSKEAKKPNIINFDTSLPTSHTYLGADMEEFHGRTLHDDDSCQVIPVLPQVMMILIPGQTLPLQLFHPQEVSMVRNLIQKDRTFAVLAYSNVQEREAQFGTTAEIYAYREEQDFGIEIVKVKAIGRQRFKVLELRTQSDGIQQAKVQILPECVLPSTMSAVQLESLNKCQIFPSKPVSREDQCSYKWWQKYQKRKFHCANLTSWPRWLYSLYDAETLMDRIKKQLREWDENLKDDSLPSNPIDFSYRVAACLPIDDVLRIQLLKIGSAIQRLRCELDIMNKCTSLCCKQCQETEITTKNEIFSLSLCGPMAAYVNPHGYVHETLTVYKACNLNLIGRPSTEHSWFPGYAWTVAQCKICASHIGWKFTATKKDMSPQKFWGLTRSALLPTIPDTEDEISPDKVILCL
Method: Compounds were tested in the following biochemical and cellular assays.
BodipyFL conjugated lenalidomide compound HH was used as a fluorescent probe. […] Protein and substrate were diluted in assay buffer.
All protein and probe containing solutions were handled in ‘Maxymum Recovery’ tubes (Axygen Scientific Inc., Union City, USA). […] For the plate measurements a PHERAstar reader (BMG Labtech, Offenburg, Germany) was used. The instrument was equipped with a specific optics module containing filters and dichoic mirrors for measuring the fluorescence polarization-type assay. With this module, the fluorescence of the Bodipy FL-based probe was excited at 485 nm and the emissions of the product were measured at 520 nm. The fluorescence in each well was excited by 10 flashes per measurement.
For the determination of AC50 values, the assays were performed at room temperature in 384-well plates with a total assay volume of 10.1 μL per well. The test compound was dissolved in 90% (v/v) DMSO/water. For the assays, 100 nL of the 90% (v/v) DMSO/water solution or compound solution were added per well, followed by the addition of 5 μL protein solution (protein in 1× assay buffer).
The final assay concentration of the protein was nominally 100 nM. After 45 minutes of pre-incubation at room temperature, the competition for binding was started by the addition of 5 μL probe solution (probe dissolved in assay buffer). The final concentration of the probes in the assays was 5 nM. After the addition of the probe solution, the final DMSO concentration in the assay was 0.9% (v/v). The effect of the probe on the pre-established compound-protein complex equilibrium was determined after 45 minutes (t=45 min). The AC50 value was calculated from the plot of percentage of protein saturation versus the test compound concentration by a logistics fit according to: y=A^2+(A^1−A^2)/(1+(x/AC50)^p), where y is the %-saturation value at the test compound concentration, x. A^1 is the lowest saturation value, i.e., 0%, and A^2 the maximum saturation value, i.e. 100%. The exponent, p, is the Hill coefficient.

For COc1ccc(C(=O)N2CCOC3(CCN(Cc4ccc(-c5cc6c(-c7cc(F)cc(NC(=O)c8ccc(C(C)(C)O)cc8F)c7C)ncnc6[nH]5)cc4)CC3)C2)cc1N1CCC(=O)NC1=O [Compound 01, N-(3-(6-(4-((4-(3-(2,4-dioxotetrahydropyrimidin-1(2H)-yl)-4-methoxybenzoyl)-1-oxa-4,9-diazaspiro[5.5]undecan-9-yl)methyl)phenyl)-7H-pyrrolo[2,3-d]pyrimidin-4-yl)-5-fluoro-2-methylphenyl)-2-fluoro-4-(2-hydroxypropan-2-yl)benzamide], the “BTK degradation Amax” value (BTK) was 98%, the DC50 (BTK) was greater than 3330 nM and the “BTK degradation” value (BTK; extent of BTK degradation as stated in the text) was “no significant BTK degradation was observed; also recorded: no degradation of BTK was observed”. For the same molecule, the AC50 (CRBN) was 1590 nM.
Cc1c(NC(=O)c2ccc(C(C)(C)O)cc2F)cc(F)cc1-c1ncnc2[nH]c(-c3ccc(CN4CCN(C(=O)N5CCN(CCC#Cc6cccc(N7CCC(=O)NC7=O)c6)CC5)CC4)cc3)cc12 [Compound 03, N-(3-(6-(4-((4-(4-(4-(3-(2,4-dioxotetrahydropyrimidin-1(2H)-yl)phenyl)but-3-yn-1-yl)piperazine-1-carbonyl)piperazin-1-yl)methyl)phenyl)-7H-pyrrolo[2,3-d]pyrimidin-4-yl)-5-fluoro-2-methylphenyl)-2-fluoro-4-(2-hydroxypropan-2-yl)benzamide] was tested, and the “BTK degradation Amax” value (BTK) was 41.9%, the DC50 (BTK) was 24.8 nM and the AC50 (CRBN) was 257 nM.
With Cc1ccc(N2CCC(=O)NC2=O)cc1CNC(=O)CCCCN(C)Cc1ccc(-c2cc3c(-c4cc(F)cc(NC(=O)c5ccc(C(C)(C)O)cc5F)c4C)ncnc3[nH]2)cc1 [Compound 08, N-(3-(6-(4-(((5-((5-(2,4-dioxotetrahydropyrimidin-1(2H)-yl)-2-methylbenzyl)amino)-5-oxopentyl)(methyl)amino)methyl)phenyl)-7H-pyrrolo[2,3-d]pyrimidin-4-yl)-5-fluoro-2-methylphenyl)-2-fluoro-4-(2-hydroxypropan-2-yl)benzamide] the “BTK degradation Amax” value (BTK) was 55.1%, the DC50 (BTK) was greater than 3330 nM and the AC50 (CRBN) was 2100 nM.
In the case of Cc1c(NC(=O)c2ccc(C(C)(C)O)cc2F)cc(F)cc1-c1ncnc2[nH]c(-c3ccc(CN4CCN(CCNC(=O)COc5cccc(N6CCC(=O)NC6=O)c5)CC4)cc3)cc12 [Compound 09, N-(3-(6-(4-((4-(2-(2-(3-(2,4-dioxotetrahydropyrimidin-1(2H)-yl)phenoxy)acetamido)ethyl)piperazin-1-yl)methyl)phenyl)-7H-pyrrolo[2,3-d]pyrimidin-4-yl)-5-fluoro-2-methylphenyl)-2-fluoro-4-(2-hydroxypropan-2-yl)benzamide], the “BTK degradation Amax” value (BTK) is reported as 3.9%, the DC50 (BTK) is reported as 3.2 nM and the AC50 (CRBN) is reported as 1400 nM.
For Cc1ccc(OCC(=O)N2CCN(CCOc3ccc(-c4cc5c(-c6cc(F)cc(NC(=O)c7ccc(C(C)(C)O)cc7F)c6C)ncnc5[nH]4)cc3)CC2)cc1N1CCC(=O)NC1=O [Compound 10, N-(3-(6-(4-(2-(4-(2-(3-(2,4-Dioxotetrahydropyrimidin-1(2H)-yl)-4-methylphenoxy)acetyl)piperazin-1-yl)ethoxy)phenyl)-7H-pyrrolo[2,3-d]pyrimidin-4-yl)-5-fluoro-2-methylphenyl)-2-fluoro-4-(2-hydroxypropan-2-yl)benzamide], the “BTK degradation Amax” value (BTK) was 3.1%, the DC50 (BTK) was 3.3 nM and the AC50 (CRBN) was 466 nM.
Cc1c(NC(=O)c2ccc(C(C)(C)O)cc2F)cc(F)cc1-c1ncnc2[nH]c(-c3ccc(CN4CCC(CCNC(=O)COc5cccc(N6CCC(=O)NC6=O)c5)CC4)cc3)cc12 [Compound 11, N-(3-(6-(4-((4-(2-(2-(3-(2,4-Dioxotetrahydropyrimidin-1(2H)-yl)phenoxy)acetamido)ethyl)piperidin-1-yl)methyl)phenyl)-7H-pyrrolo[2,3-d]pyrimidin-4-yl)-5-fluoro-2-methylphenyl)-2-fluoro-4-(2-hydroxypropan-2-yl)benzamide] was tested, and the “BTK degradation Amax” value (BTK) was 2.3%, the DC50 (BTK) was 2.2 nM and the AC50 (CRBN) was 599 nM.
Cc1c(NC(=O)c2ccc(C(C)(C)O)cc2F)cc(F)cc1-c1ncnc2[nH]c(-c3ccc(CN(C)CCCNC(=O)COc4cccc(N5CCC(=O)NC5=O)c4)cc3)cc12 [Compound 12, N-(3-(6-(4-(((3-(2-(3-(2,4-dioxotetrahydropyrimidin-1(2H)-yl)phenoxy)acetamido)propyl)(methyl)amino)methyl)phenyl)-7H-pyrrolo[2,3-d]pyrimidin-4-yl)-5-fluoro-2-methylphenyl)-2-fluoro-4-(2-hydroxypropan-2-yl)benzamide] was tested, and the “BTK degradation Amax” value (BTK) was 2.3%, the DC50 (BTK) was 10.7 nM and the AC50 (CRBN) was 7160 nM.
With Cc1c(NC(=O)N2CC(O)(CC(C)(C)C)C2)cc(F)cc1-c1ncnc2[nH]c(-c3ccc(OCCCN4CCN(C(=O)COc5ccc(Cl)c(N6CCC(=O)NC6=O)c5)CC4)nc3)cc12 [Compound 13, N-(3-(6-(6-(3-(4-(2-(4-chloro-3-(2,4-dioxotetrahydropyrimidin-1(2H)-yl)phenoxy)acetyl)piperazin-1-yl)propoxy)pyridin-3-yl)-7H-pyrrolo[2,3-d]pyrimidin-4-yl)-5-fluoro-2-methylphenyl)-3-hydroxy-3-neopentylazetidine-1-carboxamide] the “BTK degradation Amax” value (BTK) was 4.6%, the DC50 (BTK) was 3.7 nM and the AC50 (CRBN) was 575 nM.
Cc1c(NC(=O)c2ccc(C(C)(C)O)cc2F)cc(F)cc1-c1ncnc2[nH]c(-c3ccc(CNCCCCCCOc4cccc(N5CCC(=O)NC5=O)c4)cc3)cc12 [Compound 14, N-(3-(6-(4-(((6-(3-(2,4-Dioxotetrahydropyrimidin-1(2H)-yl)phenoxy)hexyl)amino)methyl)phenyl)-7H-pyrrolo[2,3-d]pyrimidin-4-yl)-5-fluoro-2-methylphenyl)-2-fluoro-4-(2-hydroxypropan-2-yl)benzamide] was tested, and the “BTK degradation Amax” value (BTK) was 25.9%, the DC50 (BTK) was 25.9 nM and the AC50 (CRBN) was 504 nM.
With Cc1c(NC(=O)c2ccc(C(C)(C)O)cc2F)cc(F)cc1-c1ncnc2[nH]c(-c3ccc(CN4CCOC(CN(C)CCOc5cccc(N6CCC(=O)NC6=O)c5)C4)cc3)cc12 (stereo not shown) [Compound 15, N-(3-(6-(4-((2-(((2-(3-(2,4-Dioxotetrahydropyrimidin-1(2H)-yl)phenoxy)ethyl)(methyl)amino)methyl)morpholino)methyl)phenyl)-7H-pyrrolo[2,3-d]pyrimidin-4-yl)-5-fluoro-2-methylphenyl)-2-fluoro-4-(2-hydroxypropan-2-yl)benzamide] the “BTK degradation Amax” value (BTK) was 28.8%, the DC50 (BTK) was 21.7 nM and the AC50 (CRBN) was 4110 nM.
